Measurements taken from patent publication US3950513A, “Process of stabilizing therapeutically useful plasmin solutions” (Novo Terapeutisk Laboratorium A/S, priority 1969, dated 1976).
“Also recorded” adds a separate entry of the source. Like-named read-outs stand apart in the source and are kept apart here. Each block holds one molecule with its values, some of them ahead of it. Where a SMILES comes first, the peptide text is derived from it.

What was measured:
[1] = molecular target: T1, plasmin originating from swine blood (Sus scrofa, UniProt P06867); assay: Stabilizing effect of amino acids on plasmin solution, residual plasmin activity (casein) on storage; format: biochemical; conditions: 35.5°C, employed concentration 0.25 millimole per plasmin unit
T1 construct: from tissue; host or cells: swine blood
T1 sequence (P06867 97-579 limits assumed): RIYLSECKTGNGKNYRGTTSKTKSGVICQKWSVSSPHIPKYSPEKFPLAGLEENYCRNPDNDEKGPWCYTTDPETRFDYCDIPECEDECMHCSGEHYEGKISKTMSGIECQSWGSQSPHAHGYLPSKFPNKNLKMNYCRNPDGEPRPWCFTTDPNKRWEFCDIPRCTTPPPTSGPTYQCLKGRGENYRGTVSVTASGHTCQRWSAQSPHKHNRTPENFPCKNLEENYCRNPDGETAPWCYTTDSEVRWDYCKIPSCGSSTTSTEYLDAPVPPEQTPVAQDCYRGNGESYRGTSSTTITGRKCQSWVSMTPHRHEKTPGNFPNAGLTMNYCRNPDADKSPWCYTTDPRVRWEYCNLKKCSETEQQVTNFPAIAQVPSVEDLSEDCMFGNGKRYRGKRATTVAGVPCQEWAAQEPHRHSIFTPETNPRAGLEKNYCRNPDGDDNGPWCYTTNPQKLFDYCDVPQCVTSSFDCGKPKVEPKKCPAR
T1 sequence (P06867 580-809 limits assumed): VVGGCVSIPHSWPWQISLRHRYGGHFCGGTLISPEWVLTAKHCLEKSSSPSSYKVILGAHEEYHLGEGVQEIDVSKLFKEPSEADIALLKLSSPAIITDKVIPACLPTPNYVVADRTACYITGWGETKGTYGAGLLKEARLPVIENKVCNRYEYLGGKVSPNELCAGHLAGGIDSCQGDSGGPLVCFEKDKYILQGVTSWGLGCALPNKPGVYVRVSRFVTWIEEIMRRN
Procedure: (§1) Usually the activity of plasmin solutions is expressed in the number of plasmin units per milliliter. However, no definition of a plasmin unit has until now been internationally adopted. Here and in the following one plasmin unit means the amount of plasmin causing in 20 minutes the formation of decomposition products being soluble in perchloric acid and having an extinction of 1 unit at 275 mμ under the following experimental conditions:
(§2) By the addition of the perchloric acid a precipitation takes place, and the two test tubes now stand for 20 minutes whereafter filtration two times through filtering paper (J. H. Munktells unrivalled Genuine Swedish Filtering Paper No. 0.9 cm) is carried out. The extinction of the two solutions is thereafter measured at 275 mμ in a Beckman D U Spectrophotometer (1 cm quartz cuvette), the value of the sample having stood for 2 minutes being used as blind value.
If not, a saturated amino acid solution is employed.

plasmin [2] = molecular target: T2, plasmin (Sus scrofa, UniProt P06867); assay: Initial loss of plasmin on adjusting concentrated acidified solution to pH 7.5; format: biochemical; conditions: 10 plasmin units per ml adjusted to pH 7.5 at 25°C
T2 sequence (P06867 97-579 limits assumed): as the sequence (P06867 97-579 limits assumed) above
T2 sequence (P06867 580-809 limits assumed): as the sequence (P06867 580-809 limits assumed) above
Source text: In the tests referred to above use has been made of plasmin solutions having a plasmin content of 0.3 and 0.4 units, respectively, per milliliter. When using more concentrated solutions, e.g. containing 10 plasmin units per milliliter, an appreciable initial loss of plasmin will occur immediately by the adjustment of the pH-value from 2-3 up to neutral reaction unless amino acids are present in sufficient amounts. Thus, in the course of a few minutes an initial loss of 20 per cent may e.g. arise when an acidified plasmin solution containing 10 plasmin units per milliliter is adjusted to pH 7.5 at 25°C even if lysine is present in the solution in an amount of 0.002 millimole per plasmin unit. Such initial loss can, however, be avoided by increasing the amino acid concentration.

plasmin [3] = molecular target: T2, plasmin; format: biochemical, swine; conditions: for % activity after 120 min. at 25°C / % activity after 60 min. at 25°C: 0.3 plasmin units per ml
Procedure: as §1
as §2, with “1 […] THE PLASMIN SOLUTION THE ACTIVITY OF WHICH IS TO BE […] THE PH of which is 7.5 is added to two test tubes each containing in 0.4 molar phosphate buffer (pH 7.50) 1 […] a 3 per cent's solution of Hammarsten Casein said solution having been preheated to 35.5°C. […] By” for “By”
The stabilizing effect of a long series of amino acids has been examined in connection with plasmin originating from swine blood and dissolved in phosphate buffer (pH 7.5). […] If not, a saturated amino acid solution is employed.

[4] = molecular target: T3, plasmin solution from swine blood (Sus scrofa, UniProt P06867); assay: Plasmin activity at high amino acid concentration and after dilution (reversible inactivation); format: biochemical
T3 construct: from tissue; host or cells: swine blood
T3 sequence (P06867 97-579 limits assumed): as the sequence (P06867 97-579 limits assumed) above
T3 sequence (P06867 580-809 limits assumed): as the sequence (P06867 580-809 limits assumed) above
Procedure: as §1
as §2, with “1 […] OF THE PLASMIN SOLUTION THE ACTIVITY OF WHICH IS TO BE DETERMINED AND THE PH of which is 7.5 is added to two test tubes each containing in 0.4 molar phosphate buffer (pH 7.50) 1 milliliter of a 3 per cent's solution of Hammarsten Casein said solution having been preheated to 35.5°C. […] By” for “By”
By way of illustration reference may be made to the following experiments:
a. A plasmin solution from swine blood and containing about 0.4 plasmin unit per milliliter and 2 millimoles of L-lysine per plasmin unit is produced in phosphate buffer (pH 7.5) whereafter the plasmin activity of the mixture is determined and compared with the activity of the plasmin solution without the amino acid addition and the activity of the mixture is expressed in per cent of the activity of the unmixed plasmin solution. Thereafter a dilution of the solution is carried out expressed in the original volume of the plasmin solution divided by the volume of the plasmin solution after the dilution, and the activity of the diluted solutions is determined.

[5] = tested on: partially purified plasmin from human plasma; conditions: cited from earlier work; for effect on autolysis of plasmin: neutral solutions, 37°C
plasmin [6] = molecular target: plasmin (Homo sapiens, UniProt P00747); conditions: plasmin about 0.047 to about 0.229 units per ml; cited from earlier work
[7] = Stability of plasmin solutions without amino acid
Source text: Further, it is possible to produce a sterile plasmin solution which is adjusted to pH 1 to 4. […] By mixing such solution before use with a sterile amino acid solution which has either been buffered with one of the normal acid-base-buffer systems or has a sufficient amino acid content, it is possible to obtain a neutral stable plasmin solution.

[8] = Solubility of plasmin in neutral aqueous solution; format: physicochemical; conditions: no amino acid
Source text: While a neutral solution of plasmin in water becomes turbid due to a precipitation of plasmin when the plasmin concentration is 0.01 unit and more per milliliter, it is possible by the addition of an amino acid to produce clear neutral plasmin solutions having a plasmin concentration up to 25 units per milliliter.

[9] = 0.010 millimole L-lysine per plasmin unit
[10] = 0.021 millimole L-lysine per plasmin unit
[11] = 0.042 millimole L-lysine per plasmin unit
[12] = pH 7.5, read-out: Activity expressed in per cent of the total activity

Molecule: CSCCC(N)C(=O)O (racemic) [DL-methionine]
- stabilizing effect (in words) [1]: possible to obtain a stabilizing effect

Molecule: CN(CC(=O)O)C(=N)N [Creatine]
- stabilizing effect (in words) [1]: considerably better than that of glycine and DL-valine

Molecule: NCC(=O)O [Glycine]
- stabilizing effect (in words) [1]: rather insignificant; also recorded: faintly stabilizing effect

- stabilizing effect (in words) [1]: strongly stabilizing effect
Molecule: NCC(=O)NCC(=O)O [Glycyl glycine] (H-Gly-Gly-OH)

Molecule: N=C(N)NCC(=O)O [Guanidino acetic acid]
- stabilizing effect (in words) [1]: considerably better than that of glycine and DL-valine

- stabilizing effect (in words) [1]: almost identical with that of glycine
Molecule: N[C@@H](CC(=O)O)C(=O)O [L(+)-aspartic acid]

Molecule: O=C(O)[C@@H]1C[C@@H](O)CN1 [L(-)-hydroxyproline]
- stabilizing effect (in words) [1]: limited stabilizing effect

Molecule: O=C(O)[C@@H]1CCCN1 [L(-)-proline]
- stabilizing effect (in words) [1]: limited stabilizing effect

Molecule: NCCCC[C@H](N)C(=O)O [L-lysine]
- initial loss of plasmin in the course of a few minutes (plasmin [2]; lysine 0.002 millimole per plasmin unit): 20 per cent
- initial loss of plasmin (plasmin [2]; lysine 0.04 millimole per plasmin unit): avoid completely an initial loss
- % activity after 120 min. at 25°C (plasmin [3]; 0.005 millimole L-lysine per plasmin unit, without lysine 70): 78%
- % activity after 60 min. at 25°C (plasmin [3]; 0.005 millimole L-lysine per plasmin unit, without lysine 77): 88%
- % activity after 60 min. at 25°C (plasmin [3]; [9]): 91%
- % activity after 120 min. at 25°C (plasmin [3]; [9]): 84%
- % activity after 60 min. at 25°C (plasmin [3]; [10]): 99%
- % activity after 120 min. at 25°C (plasmin [3]; [10]): 91%
- % activity after 60 min. at 25°C (plasmin [3]; [11]): 100%
- % activity after 120 min. at 25°C (plasmin [3]; [11]): 99%
- lysine concentration necessary to avoid a plasmin loss by standing for two hours (plasmin [3]; 25°C): 0.04 millimole per plasmin unit
- lysine concentration sufficient to allow only a plasmin loss of about 20 per cent by standing for 2 hours (plasmin [3]; 25°C): about 0.005 millimole per plasmin unit
- lysine concentration necessary to allow only a plasmin loss of about 20 per cent by standing for 2 hours (plasmin [3]; 35.5°C): about 0.1 millimole per plasmin unit
- lysine concentration necessary to avoid a plasmin loss by standing for two hours (plasmin [3]; 35.5°C, plasmin concentration of 0.4 plasmin units per ml): above 0.25 millimole per plasmin unit
- reversibility of the inactivation by dilution ([4]; Table IV): reversible
- activity at 160000 µM [4, 12]: 97%
- activity at 320000 µM [4, 12]: 100%
- activity at 480000 µM [4, 12]: 92%
- activity at 640000 µM [4, 12]: 84%
- activity at 800000 µM [4, 12]: 88%
- lysine concentration above which it has an inactivating effect on the plasmin solution ([4]; plasmin concentration 1/2 unit per millimole lysine): above 0.32 millimole per ml
- stabilizing effect (in words) [1]: strongly stabilizing effect
- stabilizing effect (in words) ([1]; listed as lysine): most vigorous stabilizing effect

Molecule: CN [methylamine]
- effect on autolysis of plasmin [5]: may inhibit this autolysis

Molecule: NC(N)=O [urea]
- effect on autolysis of plasmin [5]: may inhibit this autolysis

- stabilizing effect (in words) [1]: excellent stabilizing effect
Molecule: CC(=O)N[C@@H](CCCNC(=N)N)C(=O)O [α-N-acetyl-L-arginine]

Molecule: NCCCC(=O)O [γ-amino butyric acid]
- stabilizing effect (in words) [1]: stabilize considerably better than β-alanine

- activity at 800000 µM ([4]; Undiluted, 0.8 millimole amino acid per ml, 2 millimoles per plasmin unit, about 0.4 unit per ml, pH 7.5, read-out: Activity expressed in per cent of the total activity): 57%
- activity at 160000 µM ([4]; pH 7.5, Dilution 1:5, 0.16 millimole amino acid per ml, read-out: Activity expressed in per cent of the total activity): 93%
- activity at 320000 µM ([4]; pH 7.5, Dilution 2:5, 0.32 millimole amino acid per ml, read-out: Activity expressed in per cent of the total activity): 84%
- activity at 480000 µM ([4]; pH 7.5, Dilution 3:5, 0.48 millimole amino acid per ml, read-out: Activity expressed in per cent of the total activity): 71%
- activity at 640000 µM ([4]; pH 7.5, Dilution 4:5, 0.64 millimole amino acid per ml, read-out: Activity expressed in per cent of the total activity): 65%
- stabilizing effect (in words) ([1]; listed as ε-amino caproic acids): strongly stabilizing effect
Molecule: NCCCCCC(=O)O [ε-amino caproic acid]
- concentration at which it acts as an inhibitor of the action of plasmin (plasmin [6]): above 0.03 M
- concentration at which it exhibits an enhancing effect on the action of plasmin (plasmin [6]): up to 0.02 M
- stabilizing effect (in words) [1]: stabilize considerably better than β-alanine

B1: plasmin: proteolytic enzyme plasmin in aqueous solution without amino acid addition (protein, UniProt P00747 20-580; P00747 581-810, looked up)
Plasmin heavy chain A: EPLDDYVNTQGASLFSVTKKQLGAGSIEECAAKCEEDEEFTCRAFQYHSKEQQCVIMAENRKSSIIIRMRDVVLFEKKVYLSECKTGNGKNYRGTMSKTKNGITCQKWSSTSPHRPRFSPATHPSEGLEENYCRNPDNDPQGPWCYTTDPEKRYDYCDILECEEECMHCSGENYDGKISKTMSGLECQAWDSQSPHAHGYIPSKFPNKNLKKNYCRNPDRELRPWCFTTDPNKRWELCDIPRCTTPPPSSGPTYQCLKGTGENYRGNVAVTVSGHTCQHWSAQTPHTHNRTPENFPCKNLDENYCRNPDGKRAPWCHTTNSQVRWEYCKIPSCDSSPVSTEQLAPTAPPELTPVVQDCYHGDGQSYRGTSSTTTTGKKCQSWSSMTPHRHQKTPENYPNAGLTMNYCRNPDADKGPWCFTTDPSVRWEYCNLKKCSGTEASVVAPPPVVLLPDVETPSEEDCMFGNGKGYRGKRATTVTGTPCQDWAAQEPHRHSIFTPETNPRAGLEKNYCRNPDGDVGGPWCYTTNPRKLYDYCDVPQCAAPSFDCGKPQVEPKKCPGR
Plasmin light chain B: VVGGCVAHPHSWPWQVSLRTRFGMHFCGGTLISPEWVLTAAHCLEKSPRPSSYKVILGAHQEVNLEPHVQEIEVSRLFLEPTRKDIALLKLSSPAVITDKVIPACLPSPNYVVADRTECFITGWGETQGTFGAGLLKEAQLPVIENKVCNRYEFLNGRVQSTELCAGHLAGGTDSCQGDSGGPLVCFEKDKYILQGVTSWGLGCARPNKPGVYVRVSRFVTWIEGVMRNN
modifications: Plasmin
notes: proteolytic enzyme plasmin in aqueous solution without amino acid addition
- plasmin concentration above which neutral solutions must be considered unstable ([7]; criterion: highest permissible loss 20 per cent in 2 hours at 25°C): more than 0.1 unit per milliliter
- stability of acid sterile plasmin solution ([7]; pH 1 to 4, stored at 4°-5°C): stable for several months
- stability of aqueous plasmin solution ([7]; pH-value of 2 to 3, temperatures up to 35°C): practically completely stable
- stability in neutral solutions ([5]; rapid loss of proteolytic activity at 37°C): unstable
- plasmin concentration at which a neutral solution in water becomes turbid due to precipitation of plasmin [8]: ≥ 0.01 unit per milliliter
